Patent publication US6413967B1, “Inhibition of novel calcium entry pathway in electrically non-excitable cells acting as an anti-proliferative therapy” (The University of Virginia Patents Foundation, priority 1995, dated 2002)

Key:
[1] = test system: Ca^2+ entry pathway in Jurkat cells; assay: thapsigargin-stimulated Ca2+ entry measured with Ca2+-sensitive dyes (indo-1, fluo-3); format: cell-based, human
Protocol: Lymphocytes were suspended in culture medium at 37° C. for 1 h in the presence of 1 μM of the Ca^2+ indicator dye indo-1 /AM. Cells were washed twice in buffer A (140 mM NaCl, 3 mM KCl, 1 mM CaCl2, 1 mM MgCl2, 0.1% D-glucose, 1% FBS, 10 mM HEPES, pH 7.4) and were suspended at a final concentration of 1×10^6 cells/ml in buffer A. The excitation wavelength was 340 nm and emission was monitored at 398 nm in an SLM 8000 spectrofluorometer (SLM/Aminco, Urbana, Ill.), with the temperature maintained at 37° C. Data are plotted as relative fluorescence intensity at 398 nm as a measure of [Ca^2+]i. For FIG. 7, indo-1 emission was monitored at 398 nm and 480 nm and [Ca^2+]i was determined as described previously (Gray et al, J. Immunol (1987) 138:63; Haverstick et al, Mol. Biol. Cell (1993) 4:173).
Jurkat cells were loaded with indo-1/AM as described above. The excitation wavelength was 340 nm and emission was measured at 441 nm. The fluorescence of indo-1 at 441 nm is insensitive to changes in [Ca^2+]i (Sage et al, Biochem. J. (1989) 258:923) and is plotted as relative fluorescence intensity.
Because amiloride interferes with the fluorescence of indo-1 (Wacholtz et al, J. Immunol. (1992) 149:1912), fluo-3 was used to monitor [Ca^2+]i in the presence of amiloride. Jurkat cells were suspended in culture medium at 37° C. for 1 h in the presence of 1 μM fluo-3/AM and 1 mM probenecid to decrease dye leakage (DiVirgilio et al, Methods Cell Biol. (1989) 31:453). After two washes in buffer A, cells were suspended at a concentration of 1×10^6 cells/ml in buffer A with 1 mM probenecid and were maintained in a cuvette at 37° C. The excitation wavelength was 506 nm and the emission was monitored at 526 nm. Data are presented sa relative fluorescence intensity at 526 nm.

[2] = test system: NVG current in Jurkat cells; assay: perforated patch clamp, non-voltage gated (NVG) current; format: cell-based, human; settings: membrane potential −60 mV, 300 nM thapsigargin, amiloride 100 μM, MnCl2 300 μM, NiCl2 1 mM, W-7 30 μM, NDGA 10 μM
Protocol: (§1) All recordings were performed using the perforated patch method (Horn et al, J. Gen. Physiol. (1988) 92:145) of the gigaseal patch clamp technique (Hammil et al, Pflugers Arch (1981) 391:85) with microelectrodes of 5-10 megohm series resistance. In all solutions for voltage clamp, K^+ was replaced with Cs^+ to block outward K^+ currents (Fox et al, J. Physiol. (Lond.) (1987) 392:149). The bath solution contained (in mM): NaCl, 155; CsCl, 4.5; CaCl2, 2; MgCl2, 1; D-glucose, 5; HEPES, 10 (pH 7.4 with NaOH). The pipette solution contained (in mM): CsCl, 55; Cesium methanesulfonate, 70; CaCl2, 1; MgCl2, 7; HEPES, 10 (pH 7.3 with NaOH). Nystatin was made as a stock solution of 6 mg/100 μl DMSO, and 2 μl of the stock was added to 1 ml of the pipette solution for use. Both pipette and bath solutions were 290-300 mOsm. Experiments were performed on cells at room temperature using the Axopatch-1D patch clamp (Axon Instruments, Foster City, Calif.) after correction of junction potentials and leak subtraction. Records were low-pass filtered at 500 Hz, and the data were collected, stored and analyzed using the pClamp software program (Axon Instruments). For the non-voltage gated current traces, data is presented either as the tracing from a chart recorder or from the digital data in which the current was measured at 5 second intervals and plotted as individual points.

[3] = test system: Jurkat T cells; assay: Jurkat cell proliferation, tetrazolium dye; format: cell-based, human; settings: 48 hours
Protocol: (§2) The effect of various drugs on the proliferation of Jurkat T cells, MDA-468 human breast cancer cells and PC3 human prostate cancer cells was determined by incubating the cells with the indicated concentrations of drug for 48 hours. The number of viable cells remaining at the end of the incubation period was evaluated using the procedure outlined in Example 4.
(§3) Cells are plated in triplicate in a 96-well flat-bottomed plate (Jurkat: 5e4 cells/well in RPMI-1640 plus 5% fbs; MDA468: 2.5e4 per well in DMEM plus 5% fbs and 11 μg/ml insulin) in the absence (control) or presence of drug at 3, 10, 30, and 100 μM. An additional control of 100 μM drug in RPMI-1640 plus 5% fbs or DMEM plus 5% fbs and 11 μg/Ml insulin with no cells is included with each run to control for possible drug interactions with the dye. The plate is then placed in a 5% CO2 37° C. incubator for 44 to 48 hours. 20 μl of dye solution containing a tetrazolium dye (3-(4,5-dimethylthiazol-2-yl)-5-(3-carboxymethoxyphenyl)-2-(4-sulfophenyl)-2H-tetrazolium, Owen's reagent) plus coupling reagent (phenazine methosulfate) is added to each well, the plate is returned to the incubator, and the absorbance at 490 nm is read using an ELISA plate reader 3 to 4 h (Jurkat cells) or 2 to 3 h (MDA-468 cells) later. All data are presented as percent of control (no drug addition). With this protocol, it is possible to determine the effect of 5 drugs at 4 concentrations in a single 96-well plate as outlined below: […]

[4] = test system: VG Ca^2+ current in Jurkat cells; assay: perforated patch clamp, voltage gated (VG) Ca2+ current; format: cell-based, human; settings: Homo sapiens, 10 μM NDGA
Protocol: as §1

[5] = test system: MDA-468 human breast cancer cells; assay: MDA-468 cell proliferation, tetrazolium dye; format: cell-based; settings: human breast cancer cell proliferation, 48 hours
Protocol: as §2, §3

## CC(Cc1ccc(O)c(O)c1)C(C)Cc1ccc(O)c(O)c1 (stereo not drawn) [NDGA, 4,4′-(2,3-dimethyl-1,4-butanediyl)bis[1,2-benzenediol]]
[1]; 300 nM thapsigargin, amiloride 100 μM (fluo-3), Ni^2+ 1 mM, NDGA 10 μM (indo-1)
  effect on thapsigargin-stimulated Ca^2+ entry: inhibited Ca^2+ entry
[1]; Homo sapiens, indo-1, n=10, read-out: IC50 for blockade of thapsigargin-stimulated Ca^2+ entry
  IC50: 5 µM
[2]
  effect on the thapsigargin-induced NVG current: no effect
[3]
  T cell PROLIF: ↓
[4]
  inhibition at 10 µM: ~70%
[5]
  MDA PROLIF: ↓
